“Also recorded” adds a separate entry of the source.
Experiments:
[1] = tested on: ribosomal S6 protein and MDM2; test: Immunoblot of ribosomal S6 protein and MDM2 phosphorylation (mTORC1/p70S6K signaling); type: cell-based, human; conditions: agent added to NRTI-exposed cardiac fibroblasts
Experimental: (§1) Cell culture experiments utilizing NRTIs were of the following design. Cultures of either human lung or cardiac fibroblasts were cultivated according to standard culture protocols for these cells (Cristofalo, et al., Journal of Tissue Culture Methods 1980, 6:117-121). Parallel sets of cultures were maintained in normal growth media or in normal growth media with the addition of 1 nM rapamycin. Cultures were maintained with 1 nM rapamycin (Enzo Biologicals) for two weeks before exposure to NRTIs. Cell cultures were exposed to NRTIs at indicated concentrations in individual experiments (generally 10-20 μg/ml) for 7 days, with a change of media and fresh NRTIs at day 4. Mitochondrial measurements, bioanalyzer measurements, immunoblotting for protein expression and phosphorylation status, and assays for senescence were performed at the end of this 7-day period.
Cell culture reagents were from Cellgro, unless indicated. WI-38 fetal-lung primary human fibroblasts or human cardiac fibroblasts were grown in MEM supplemented with 10% fetal bovine serum, 1% L-glutamine, MEM vitamins, and MEM non-essential amino acids. Cells were maintained in a 37° C. in 5% CO2 incubator. For treatment studies, cells were treated with 1 nM rapamycin (Enzo Biologicals) for two weeks before treatment with NRTIs. Cells were maintained by trypsinization and reseeding at a cell density of 1×10^4/cm^2 every 7 to 10 days. Emtricitabine (FTC) and tenofovir disoproxil fumarate (TDF) were kindly provided by the NIH AIDS Research & Reference Reagent program. During the 7-day exposure to the NRTIs, the pharmacologic inhibitors PD98059 (10 μM, Santa Cruz Biotechnologies), BI-D1870, GW5074, and SB203580 (10 μM, Enzo Biologicals) were added to the culture medium either during the final 48 hours or for the final 2 hours depending upon the experiment. During the 7-day exposure to NRTIs, Trolox (500 μM) and N-acetylcysteine (100 μM, Acros Organics) were added every other day. Mito-Q (20 nM) and TPP (20 nM) were kindly provided by Dr. Brett Kaufmann at the University of Pennsylvania School of Veterinary Medicine. Vector and mt-catalase adenoviruses (MOI's 25, 50, and 75) were purchased from Gene Transfer Vector Core from the University of Iowa.
Cell protein extracts were prepared by extracting with radioimmunoprecipitation assay (RIPA) buffer containing a protease inhibitor cocktail (Sigma-Aldrich) and phosphatase inhibitors, NaF and sodium orthovanadate. Protein concentration was quantified using a bicinchoninic acid (BCA) assay (Pierce Biotechnology). Western blot analysis was performed using 15 to 30 μg of protein extracts that were run on SDS-PAGE and transferred onto nitrocellulose (Biorad) membranes. Blots were incubated with antibodies specific for: beta-actin (Sigma-Aldrich), TFAm, parkin, p16, phospho(S82)HSP27, HSP27 (Santa Cruz Biotechnologies), p53, 21, catalase, MDM2 (EMD Millipore), VDAC, phospho(S235/236)-ribosomal protein S6, ribosomal protein S6, phospho(S166)-MDM2, phospho(5473)-AKT, AKT, beta-tubulin (Cell Signaling), p62 (Enzo Biologicals), IL-6 (NeoBiolab), lamin B1, PINK1, and Mitoprofile Total OXPHOS Cocktail (complex I-NDUFB8 subunit, CII-SDHB subunit, […]2 subunit, and CIV-mitochondrial COX1 subunit) (Abcam) according to manufacturers' instructions. Western blots were visualized using IRDye 680 and 800 LI-COR secondary antibodies on a LI-COR Odyssey using LI-COR Odyssey software version 3.0 (LI-COR Biosciences). For co-immunoprecipitation, cell protein extracts were prepared in HNTG buffer containing a protease inhibitor cocktail and quantified using BCA assay. Protein extracts at the concentration of 0.5 mg were pre-cleared with protein A/G beads (Santa Cruz Biologicals) for 30 minutes. After centrifugation at 2,000 rpm for 5 minutes at 4° C., the supernatant was incubated with the primary antibody at manufacturer's recommended concentration overnight at 4° C. An IgG antibody (Cell Signaling) was used as a non-specific control.

[2] = tested on: human fibroblasts; test: Long-term culture of human fibroblasts with or without rapamycin (lifespan, organization, p21 and IL-6 expression); type: cell-based
Experimental: FIG. 13 is a graph illustrating the finding that rapamycin treatment provides lifespan extension in human fibroblasts. Human fibroblast cells were growth in culture medium with or without rapamycin (1 nM). Cultures were split every 7 days and reseeded at identical cell number/cm^2 each week. The lifespan of normal human fibroblasts is counted by the number of times that the cells double.
FIG. 14 illustrates the finding that rapamycin preserves cell organization during aging of human fibroblasts. […] The ability to organize is a critical element of normal fibroblast function and contributes to tissue integrity in normal tissue. The disorganization which occurs with age contributes to functional decline.
FIG. 17 is a bar graph illustrating the finding that rapamycin prevents the expression of genes that cause senescence. The p21 gene makes a protein that is critical for senescence of human fibroblasts.
FIG. 18 is a bar graph illustrating the finding that rapamycin prevents the expression of genes related to inflammation. The IL-6 gene makes a protein that activates the immune system to recruit immune cells into an area of tissue damage.
as §1

[3] = cells grown in the presence of rapamycin

CO[C@H]1C[C@@H]2CC[C@@H](C)[C@@](O)(O2)C(=O)C(=O)N2CCCC[C@H]2C(=O)O[C@H]([C@H](C)C[C@@H]2CC[C@@H](O)[C@H](OC)C2)CC(=O)[C@H](C)/C=C(\C)[C@@H](O)[C@@H](OC)C(=O)[C@H](C)C[C@H](C)/C=C/C=C/C=C/1C [rapamycin]
MDM2 phosphorylation in cells exposed to NRTIs [1]: no increase | ribosomal S6 phosphorylation in cells exposed to NRTIs [1]: complete lack | IL-6 expression as cells age [2, 3]: do not produce IL-6 | p21 expression as cells age [2, 3]: do not produce p21 | cell organization during aging ([2]; low doses of rapamycin): maintained an orderly growth pattern | replicative lifespan (number of times that the cells double) ([2]; rapamycin 1 nM in culture medium): extend replicative lifespan; also recorded: well beyond the normal lifespan
